The conditions of the data set: fluorescence intensity over time.

The structures appear in SMILES notation.

As for `CC1(C)C(/C=C/C=C/C=C/C=C2\N(CCCCS(=O)(=O)O)c3ccc4ccccc4c3C2(C)C)=[N+](CCCCS(=O)(=O)[O-])c2ccc3ccccc3c21` [ICG, indocyanine green], the fluorescence half-life result is on record as “about three”.

The values above are taken from patent US20200246493A1, “DRUG-IODINATED OIL DISPERSION, METHOD FOR PREPARING SAME AND ITS APPLICATION IN EMBOLIZATION TREATMENT FOR LIVER CANCER” (Xiamen University, priority 2019, published 2020).
